# Source: US9399646B2 (Genentech, Inc., priority 2010, dated 2016)
# Columns and labels:
# [1] = system: MCF-7 cells; assay: Breast cancer cell viability assay (CellTiter-Glo, 5 days); format: cell-based; conditions: 5 days' compound exposure; for IC50: Homo sapiens, MCF7, 120 h
# How it was run: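 MCF-7 cells, 320 per well in RPMI with 10% FBS and 20 mM HEPES, adhered overnight, then exposed 5 days to an eleven-point semilog dilution (final 0.3-0.000003 μM). CellTiter-Glo luminescence read; % viability = (sample − cell-free background)/(untreated − background) × 100.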
# [2] = molecular target: T1, ER-α in MCF-7 cells (Homo sapiens, UniProt P03372); assay: Breast cancer cell ER-α in cell western assay (SP1); format: cell-based; design: endogenous in cells; host or cells: MCF-7; conditions: 4 or 24 hr post compound addition; for Emax: MCF7, SP1 antibody, read-out: ER-α In Cell Western Assay (SP1) Max Response; for DC50: SP1 antibody, read-out: ER-α In Cell Western Assay (SP1) IC50
# T1 sequence (P03372 1-595): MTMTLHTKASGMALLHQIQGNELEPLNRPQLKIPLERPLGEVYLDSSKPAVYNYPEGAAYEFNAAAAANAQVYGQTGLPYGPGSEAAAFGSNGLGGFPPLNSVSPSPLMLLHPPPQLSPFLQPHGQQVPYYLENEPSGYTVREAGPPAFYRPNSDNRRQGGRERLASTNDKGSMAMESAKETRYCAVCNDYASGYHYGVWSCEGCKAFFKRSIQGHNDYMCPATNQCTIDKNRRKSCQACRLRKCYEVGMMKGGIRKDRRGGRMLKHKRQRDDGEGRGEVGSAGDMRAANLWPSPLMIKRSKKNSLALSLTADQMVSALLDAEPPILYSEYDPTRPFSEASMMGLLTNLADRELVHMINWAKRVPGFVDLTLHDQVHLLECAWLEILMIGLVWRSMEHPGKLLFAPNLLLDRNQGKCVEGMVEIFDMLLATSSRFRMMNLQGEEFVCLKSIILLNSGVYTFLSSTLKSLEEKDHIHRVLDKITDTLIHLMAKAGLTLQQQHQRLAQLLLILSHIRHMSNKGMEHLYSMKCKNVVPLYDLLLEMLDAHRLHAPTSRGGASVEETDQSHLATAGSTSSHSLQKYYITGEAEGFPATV
# How it was run: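 Fixed cells were immunostained with SP1 anti-ER antibody; ER signal (800 nm) was normalized to DRAQ5 DNA signal (700 nm) and expressed as % of untreated cells.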
Structure (SMILES),MCF7 Viability Assay Max Response [1],IC50 [1],Emax [2],DC50 [2]
"CC/C(=C(/c1ccc(/C=C/C(=O)O)cc1)c1ccc2[nH]ncc2c1)c1cccc(N2CCOCC2)c1 [Compound 265, (E)-3-(4-((E)-1-(1H-Indazol-5-yl)-2-(3-morpholinophenyl)but-1-en-1-yl)phenyl)acrylic acid]",++ (++ = a single % value ≧ 40%),> 100 nM,≥ 40%,> 100 nM
"CC/C(=C(/c1ccc(/C=C/C(=O)O)cc1)c1ccc2[nH]ncc2c1)c1ccc2nccnc2c1 [Compound 266, (E)-3-(4-((E)-1-(1H-Indazol-5-yl)-2-(quinoxalin-6-yl)but-1-en-1-yl)phenyl)acrylic acid]",++ (++ = a single % value ≧ 40%),≤ 100 nM,≥ 40%,≤ 100 nM
"CC/C(=C(/c1ccc(/C=C/C(=O)O)cc1)c1ccc2[nH]ncc2c1)c1ccsc1Cl [Compound 267, (E)-3-(4-((E)-2-(2-Chlorothiophen-3-yl)-1-(1H-indazol-5-yl)but-1-en-1-yl)phenyl)acrylic acid]",++ (++ = a single % value ≧ 40%),≤ 100 nM,≥ 40%,≤ 100 nM
"CC/C(=C(/c1ccc(/C=C/C(=O)O)cc1)c1ccc2[nH]ncc2c1)c1cc2ccccc2s1 [Compound 268, (E)-3-(4-((E)-2-(Benzo[b]thiophen-2-yl)-1-(1H-indazol-5-yl)but-1-en-1-yl)phenyl)acrylic acid]",++ (++ = a single % value ≧ 40%),> 100 nM,≥ 40%,≤ 100 nM
"CC/C(=C(/c1ccc(/C=C/C(=O)O)cc1)c1ccc2[nH]ncc2c1)c1cccc(Oc2ccc(F)cc2)c1 [Compound 269, (E)-3-(4-((E)-2-(3-(4-Fluorophenoxy)phenyl)-1-(1H-indazol-5-yl)but-1-en-1-yl)phenyl)acrylic acid]",++ (++ = a single % value ≧ 40%),≤ 100 nM,≥ 40%,≤ 100 nM
"CC/C(=C(/c1ccc(/C=C/C(=O)O)cc1)c1ccc2[nH]ncc2c1)c1cc2c(s1)CCN(C)C2 [Compound 270, (E)-3-(4-((E)-1-(1H-Indazol-5-yl)-2-(5-methyl-4,5,6,7-tetrahydrothieno[3,2-c]pyridin-2-yl)but-1-en-1-yl)phenyl)acrylic acid]",++ (++ = a single % value ≧ 40%),> 100 nM,≥ 40%,> 100 nM
"CC/C(=C(/c1ccc(/C=C/C(=O)O)cc1)c1ccc2[nH]ncc2c1)c1csc(-c2ccccc2)c1 [Compound 271, (E)-3-(4-((E)-1-(1H-Indazol-5-yl)-2-(5-phenylthiophen-3-yl)but-1-en-1-yl)phenyl)acrylic acid]",++ (++ = a single % value ≧ 40%),≤ 100 nM,≥ 40%,≤ 100 nM
"CC/C(=C(/c1ccc(/C=C/C(=O)O)cc1)c1ccc2[nH]ncc2c1)c1ccc2sccc2c1 [Compound 272, (E)-3-(4-((E)-2-(Benzo[b]thiophen-5-yl)-1-(1H-indazol-5-yl)but-1-en-1-yl)phenyl)acrylic acid]",++ (++ = a single % value ≧ 40%),≤ 100 nM,≥ 40%,≤ 100 nM
"CC/C(=C(/c1ccc(/C=C/C(=O)O)cc1)c1ccc2[nH]ncc2c1)c1ccc2sc(C)nc2c1 [Compound 273, (E)-3-(4-((E)-1-(1H-Indazol-5-yl)-2-(2-methylbenzo[d]thiazol-5-yl)but-1-en-1-yl)phenyl)acrylic acid]",++ (++ = a single % value ≧ 40%),≤ 100 nM,≥ 40%,≤ 100 nM
"CC/C(=C(/c1ccc(/C=C/C(=O)O)cc1)c1ccc2[nH]ncc2c1)c1cc(C)sc1C [Compound 274, (E)-3-(4-((E)-2-(2,5-Dimethylthiophen-3-yl)-1-(1H-indazol-5-yl)but-1-en-1-yl)phenyl)acrylic acid]",++ (++ = a single % value ≧ 40%),≤ 100 nM,≥ 40%,≤ 100 nM
"CC/C(=C(/c1ccc(/C=C/C(=O)O)cc1)c1ccc2scnc2c1)c1ccc(F)cc1Cl [Compound 275, (E)-3-(4-((E)-1-(Benzo[d]thiazol-5-yl)-2-(2-chloro-4-fluorophenyl)but-1-en-1-yl)phenyl)acrylic acid]",++ (++ = a single % value ≧ 40%),≤ 100 nM,≥ 40%,≤ 100 nM
"CC/C(=C(/c1ccc(/C=C/C(=O)O)cc1)c1ccc2scnc2c1)c1cscc1C [Compound 276, (E)-3-(4-((E)-1-(Benzo[d]thiazol-5-yl)-2-(4-methylthiophen-3-yl)but-1-en-1-yl)phenyl)acrylic acid]",++ (++ = a single % value ≧ 40%),≤ 100 nM,≥ 40%,≤ 100 nM
"O=C(O)/C=C/c1ccc(/C(=C(\c2ccc(F)cc2Cl)C2CCC2)c2ccc3scnc3c2)cc1 [Compound 278, (E)-3-(4-((E)-1-(Benzo[d]thiazol-5-yl)-2-(2-chloro-4-fluorophenyl)-2-cyclobutylvinyl)phenyl)acrylic acid]",++ (++ = a single % value ≧ 40%),≤ 100 nM,≥ 40%,≤ 100 nM
"Cc1cscc1/C(=C(\c1ccc(/C=C/C(=O)O)cc1)c1ccc2scnc2c1)C1CCC1 [Compound 279, (E)-3-(4-((E)-1-(Benzo[d]thiazol-5-yl)-2-cyclobutyl-2-(4-methylthiophen-3-yl)vinyl)phenyl)acrylic acid]",++ (++ = a single % value ≧ 40%),≤ 100 nM,≥ 40%,≤ 100 nM
"CC/C(=C(/c1ccc(/C=C/C(=O)O)cc1)c1ccc2scnc2c1)c1ccccc1Cl [Compound 280, (E)-3-(4-((E)-1-(Benzo[d]thiazol-5-yl)-2-(2-chlorophenyl)but-1-en-1-yl)phenyl)acrylic acid]",++ (++ = a single % value ≧ 40%),≤ 100 nM,≥ 40%,≤ 100 nM
"CC/C(=C(/c1ccc(/C=C/C(=O)O)cc1)c1ccc2scnc2c1)c1ccc(F)cc1 [Compound 281, (E)-3-(4-((E)-1-(Benzo[d]thiazol-5-yl)-2-(4-fluorophenyl)but-1-en-1-yl)phenyl)acrylic acid]",++ (++ = a single % value ≧ 40%),> 100 nM,≥ 40%,≤ 100 nM
"CC/C(=C(/c1ccc(/C=C/C(=O)O)cc1)c1ccc2scnc2c1)c1ccc(F)cc1C [Compound 282, (E)-3-(4-((E)-1-(Benzo[d]thiazol-5-yl)-2-(4-fluoro-2-methylphenyl)but-1-en-1-yl)phenyl)acrylic acid]",++ (++ = a single % value ≧ 40%),≤ 100 nM,≥ 40%,≤ 100 nM
"CC/C(=C(/c1ccc(/C=C/C(=O)O)cc1)c1ccc2scnc2c1)c1ccccc1C [Compound 283, (E)-3-(4-((E)-1-(Benzo[d]thiazol-5-yl)-2-(o-tolyl)but-1-en-1-yl)phenyl)acrylic acid]",++ (++ = a single % value ≧ 40%),≤ 100 nM,≥ 40%,≤ 100 nM
"CC/C(=C(/c1ccc(/C=C/C(=O)O)cc1)c1ccc2scnc2c1)c1ccncc1Cl [Compound 284, (E)-3-(4-((E)-1-(Benzo[d]thiazol-5-yl)-2-(3-chloropyridin-4-yl)but-1-en-1-yl)phenyl)acrylic acid]",++ (++ = a single % value ≧ 40%),≤ 100 nM,≥ 40%,≤ 100 nM
"O=C(O)/C=C/c1ccc(/C(=C(\c2ccccc2)C2CCC2)c2ccc3scnc3c2)cc1 [Compound 286, (E)-3-(4-((E)-1-(Benzo[d]thiazol-5-yl)-2-cyclobutyl-2-phenylvinyl)phenyl)acrylic acid]",++ (++ = a single % value ≧ 40%),≤ 100 nM,≥ 40%,≤ 100 nM
"CC/C(=C(/c1ccc(/C=C/C(=O)O)cc1)c1ccc2c(c1)CNC2=O)c1ccc(F)cc1Cl [Compound 287, (E)-3-(4-((E)-2-(2-Chloro-4-fluorophenyl)-1-(1-oxoisoindolin-5-yl)but-1-en-1-yl)phenyl)acrylic acid]",++ (++ = a single % value ≧ 40%),≤ 100 nM,≥ 40%,≤ 100 nM
CC/C(=C(/c1ccc(/C=C/C(=O)O)cc1)c1ccc2[nH]ncc2c1)c1ccc(S(=O)(=O)C(F)(F)F)cc1 [Compound 288],++ (++ = a single % value ≧ 40%),> 100 nM,≥ 40%,≤ 100 nM
